Measurements as given in article PMC8398983, “Triarylborane Dyes as a Novel Non-Covalent and Non-Inhibitive Fluorimetric Markers for DPP III Enzyme” (Molecules, 2021).
Where a chain is given by its changes, count along the chain named.

How the values were obtained:
Test in all cases: fluorimetric titration, […] fit
Type in all cases: binding
[1] = target: T1, hDPP III (Homo sapiens, UniProt Q9NY33, E451A); conditions: read-out: logKs (converted)
T1 construct: gene DPP3; recombinant, C-terminal His-tag, expressed in E. coli from pET21b, Ni-NTA purified
T1 sequence (Q9NY33 2-737 E451A): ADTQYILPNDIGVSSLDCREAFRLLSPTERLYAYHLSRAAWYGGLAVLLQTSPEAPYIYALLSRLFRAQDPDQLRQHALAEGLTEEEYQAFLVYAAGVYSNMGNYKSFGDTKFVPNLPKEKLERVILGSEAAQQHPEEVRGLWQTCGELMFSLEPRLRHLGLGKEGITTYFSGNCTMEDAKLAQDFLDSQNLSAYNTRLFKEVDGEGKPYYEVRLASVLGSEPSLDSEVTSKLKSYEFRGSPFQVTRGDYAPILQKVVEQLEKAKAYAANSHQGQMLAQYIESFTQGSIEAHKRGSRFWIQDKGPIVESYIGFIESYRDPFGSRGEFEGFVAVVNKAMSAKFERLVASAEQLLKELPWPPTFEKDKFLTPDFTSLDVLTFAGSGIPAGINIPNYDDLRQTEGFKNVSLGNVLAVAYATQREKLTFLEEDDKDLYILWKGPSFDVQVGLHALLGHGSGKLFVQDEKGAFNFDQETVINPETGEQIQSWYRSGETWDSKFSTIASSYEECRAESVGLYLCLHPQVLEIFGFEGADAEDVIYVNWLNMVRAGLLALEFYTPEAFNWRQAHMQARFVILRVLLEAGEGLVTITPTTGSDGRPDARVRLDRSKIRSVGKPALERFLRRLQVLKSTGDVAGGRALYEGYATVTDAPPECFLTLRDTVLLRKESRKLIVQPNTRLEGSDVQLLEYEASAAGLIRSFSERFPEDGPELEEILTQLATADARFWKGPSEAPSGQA

[2] = target: T2, BSA (bovine serum albumin) (Bos taurus, UniProt P02769); conditions: read-out: logKs (converted)
T2 construct: gene ALB; commercial native protein (Sigma Aldrich), mature serum albumin
T2 sequence (P02769 25-607): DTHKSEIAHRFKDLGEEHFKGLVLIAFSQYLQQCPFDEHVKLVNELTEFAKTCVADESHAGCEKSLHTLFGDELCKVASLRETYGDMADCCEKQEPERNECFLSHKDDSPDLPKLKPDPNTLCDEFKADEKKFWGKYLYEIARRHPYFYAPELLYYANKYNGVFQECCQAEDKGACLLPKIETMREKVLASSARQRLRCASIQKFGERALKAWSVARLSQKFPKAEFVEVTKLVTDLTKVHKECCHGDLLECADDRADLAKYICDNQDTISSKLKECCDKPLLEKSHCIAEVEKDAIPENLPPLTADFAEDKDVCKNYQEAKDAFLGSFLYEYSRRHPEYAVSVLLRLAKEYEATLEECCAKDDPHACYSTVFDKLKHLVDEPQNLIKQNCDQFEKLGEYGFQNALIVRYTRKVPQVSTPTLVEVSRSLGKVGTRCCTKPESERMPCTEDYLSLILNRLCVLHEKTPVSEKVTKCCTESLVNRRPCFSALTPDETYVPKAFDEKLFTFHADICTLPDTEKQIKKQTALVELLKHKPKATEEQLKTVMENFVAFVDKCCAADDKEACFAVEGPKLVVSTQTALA

[3] = target: T3, hDPP III (Homo sapiens, UniProt Q9NY33); conditions: TRIS-HCl buffer I = 0.02 M, pH 7.4
T3 construct: gene DPP3; recombinant, C-terminal His-tag, expressed in E. coli from pET21b, Ni-NTA purified
T3 sequence (Q9NY33 2-737): T1 sequence (Q9NY33 2-737 E451A) with A450E

For `Cc1cc(-c2cn(C(CCCCNC(=O)CCCc3ccc4ccc5cccc6ccc3c4c56)C(=O)O)nn2)cc(C)c1B(c1c(C)cc(N(C)C)cc1C)c1c(C)cc(N(C)C)cc1C` (stereo not drawn) [compound 2, Triaryl-borane-amino acid-pyrene conjugate 2], the Kd [1] was 398 nM, the Kd [2] was 398 nM and the logKs ([3]; λexc 342 and 403 nm) was “performed fluorimetric titrations with wild type (wt) hDPP III”.
With `Cc1cc(-c2cn(C(CCCCN)C(=O)O)nn2)cc(C)c1B(c1c(C)cc(N(C)C)cc1C)c1c(C)cc(N(C)C)cc1C` (stereo not drawn) [compound 1, Triaryl-borane-amino acid conjugate 1] the Kd [1] was 251 nM, the Kd [2] was 501 nM and the logKs ([3]; λexc 400 nm) was “performed fluorimetric titrations with wild type (wt) hDPP III”.
